Values after ≈ are worked out from the molar mass of the structure shown. Where two headings read alike, the source gives them in different places.
Key:
[1] = parameters: method as in Chai et al., 2016; conditions: 37 °C, ref Chai et al., 2016, cited from earlier work
[2] = cited from earlier work
[3] = Cellular transport studies (Papp, efflux ratio); type: in vitro ADME; conditions: human
Experimental: The Caco-2 cell monolayer is the most widespread model for cellular transport experiments to evaluate the efflux effect of P-gp (Hunter et al., [1993]). The transepithelial electrical resistance (TEER) value of Caco-2 cell monolayer model was measured using a cell resistance meter (Millicell-ERS, Millipore, USA), and models were used for transport experiments when the TEER value exceeded […] (Andrew & Cameron, [2012]).
For apical to basolateral (AP > BL) (basolateral to apical (BL > AP)) transport experiments, 1.5 mL of Hank’s Balanced Salt Solution (HBSS) loaded with DE, DE-SMs and DE-CMs (the concentration of DE in different groups was 200 μg/mL) was added to the AP side (BL side) and 2.6 mL of blank HBSS was added to the BL side (AP side), respectively. At fixed time intervals, 400 μL aliquots were taken from the BL side (AP side) with replacement of the fresh HBSS. The samples were frozen in a refrigerator at –80 °C until HPLC analysis. The HPLC method employed an ODS C18 column (250 × 4.6 mm, 5 μm, Dikma Technologies, China) and a methanol-water (75:25, v/v) mobile phase with a flow rate of 1.0 mL/min. The detection wavelength was 316 nm and the injection volume was 20 μL. The apparent permeability coefficient (Papp) and efflux ratio (ER) were calculated as follows: (5) Papp=dQ/dt/A×C0 where dQ/dt is the steady-state appearance rate of DE on the receiver side, C0 is the initial concentration of DE on the supply side, and A is the surface area of the cell monolayer. (6) ER=Papp(BL→AP)/Papp(AP→BL) where Papp(BL→AP) is the Papp value of DE transferred from the BL side to AP side, and Papp(AP→BL) is the Papp value of DE transferred from the AP side to BL side.

[4] = Cytotoxicity by MTT assay; type: cell-based; conditions: human, Caco-2 cells, tested concentrations 0.05 μg/mL to 200 μg/mL, read-out: cell viability
Experimental: Cytotoxicity of DE, dabigatran etexilate-loaded single micelles (DE-SMs) and DE-CMs was investigated by the MTT assay (Zhai et al., [2013]). Caco-2 cells were supplied by KeyGEN BioTECH Co., Ltd. (Nanjing, China) and maintained in medium composite of DMEM (high glucose), 20% FBS and 1% penicillin/streptomycin solution. Cells were cultured at a density of 5 × 10^4 cells/well in 96-well plates and incubated at 37 °C under 5% CO2 for 24 h. Then, the complete medium was removed and cells were further incubated with 100 μL of complete medium containing DE, DE-SMs and DE-CMs at 37 °C for 24 h, respectively. Next, the medium was replaced with 20 μL of MTT (5 mg/mL) solution and 80 μL of fresh medium. Following 4 h of incubation, the medium containing MTT was discarded and 150 μL of DMSO was added to each well to dissolve the granular crystallization. The optical density of the samples was measured at 490 nm wavelength using a microplate ELISA analyzer (Thermo Scientific, USA) (Fan et al., [2017a]). The negative control was the group of Caco-2 cells without drugs. Cell viability was calculated as follows: (4) Cell viability (%)=(1−ODnegtive control−ODsample/ODnegtive control)×100% where ODnegative control is the optical density of the negative control group, and ODsample is the optical density of the experimental group.

## CCCCCCOC(=O)NC(=N)c1ccc(NCc2nc3cc(C(=O)N(CCC(=O)OCC)c4ccccn4)ccc3n2C)cc1 [DE, dabigatran etexilate]
[1]; SGF
  solubility: 19245 µg/mL (≈ 30.7 mM)
[1]; SIF
  solubility: 3.06 µg/mL (≈ 0.00487 mM)
[2]; after oral administration, ref Greig & Mckeage, 2014
  absolute bioavailability: approximately 6.5%
[2]; ref Wang et al., 2013
  oral bioavailability: 3–7%
[3]; Caco-2, Papp(BL→AP)/Papp(AP→BL), read-out: ER value (efflux ratio)
  efflux ratio at 200 μg/mL: 14.2
[3]; Caco-2 monolayer, DE 200 μg/mL, read-out: Papp (AP to BL)
  Papp A→B at 200 μg/mL: 0.59 ± 0.055 ×10⁻⁶ cm/s
[3]; Caco-2 monolayer, DE 200 μg/mL, read-out: Papp (BL to AP)
  Papp B→A at 200 μg/mL: 8.44 ± 0.072 ×10⁻⁶ cm/s
[4]
  viability at 24 h: > 80%

From PMC7269033, “A composite nanocarrier to inhibit precipitation of the weakly basic drug in the gastrointestinal tract” (Drug Delivery, 2020)
